# ChEMBL document CHEMBL3045560, “Insecticide interactions with -aminobutyric acid and nicotinic receptors: predictive aspects of structural models” (J Pestic Sci, 2008)
# Key:
# [1] = Selectivity ratio of IC50 for recombinant human GABA receptor to IC50 for housefly GABA receptor
# [2] = biological target: T1, GABA-A receptor; alpha-1/beta-3/gamma-2 (Homo sapiens, UniProt P14867+P18507+P28472); assay: Displacement of [3H]EBOB from recombinant Homo sapiens (human) GABA alpha1beta3gamma2 receptor; format: protein-complex assay
# T1 sequence (P14867 whole entry): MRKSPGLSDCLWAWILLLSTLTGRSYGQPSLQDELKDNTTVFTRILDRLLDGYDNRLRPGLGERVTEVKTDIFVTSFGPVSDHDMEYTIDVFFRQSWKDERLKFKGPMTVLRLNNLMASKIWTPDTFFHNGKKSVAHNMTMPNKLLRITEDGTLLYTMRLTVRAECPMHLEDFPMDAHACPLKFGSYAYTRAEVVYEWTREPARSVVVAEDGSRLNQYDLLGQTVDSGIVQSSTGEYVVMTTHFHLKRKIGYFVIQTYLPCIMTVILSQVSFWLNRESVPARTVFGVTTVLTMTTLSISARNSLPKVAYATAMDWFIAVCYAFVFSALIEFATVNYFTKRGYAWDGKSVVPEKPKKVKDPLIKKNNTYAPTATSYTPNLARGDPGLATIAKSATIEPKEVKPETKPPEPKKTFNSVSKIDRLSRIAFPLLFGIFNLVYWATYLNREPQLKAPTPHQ
# T1 sequence (P18507 whole entry): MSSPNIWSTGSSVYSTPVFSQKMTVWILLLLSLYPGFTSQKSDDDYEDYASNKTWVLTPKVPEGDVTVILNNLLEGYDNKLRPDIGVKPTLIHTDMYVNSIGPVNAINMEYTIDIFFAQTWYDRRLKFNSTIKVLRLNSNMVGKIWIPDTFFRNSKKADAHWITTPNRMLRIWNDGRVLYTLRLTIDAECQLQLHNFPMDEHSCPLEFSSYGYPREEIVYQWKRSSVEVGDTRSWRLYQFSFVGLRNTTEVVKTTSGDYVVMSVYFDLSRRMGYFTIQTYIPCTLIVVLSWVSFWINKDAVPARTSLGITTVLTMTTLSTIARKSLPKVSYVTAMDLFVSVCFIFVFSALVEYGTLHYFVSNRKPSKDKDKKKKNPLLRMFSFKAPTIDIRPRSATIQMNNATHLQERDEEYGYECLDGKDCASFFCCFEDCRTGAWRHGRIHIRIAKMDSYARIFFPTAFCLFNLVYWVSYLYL
# T1 sequence (P28472 whole entry): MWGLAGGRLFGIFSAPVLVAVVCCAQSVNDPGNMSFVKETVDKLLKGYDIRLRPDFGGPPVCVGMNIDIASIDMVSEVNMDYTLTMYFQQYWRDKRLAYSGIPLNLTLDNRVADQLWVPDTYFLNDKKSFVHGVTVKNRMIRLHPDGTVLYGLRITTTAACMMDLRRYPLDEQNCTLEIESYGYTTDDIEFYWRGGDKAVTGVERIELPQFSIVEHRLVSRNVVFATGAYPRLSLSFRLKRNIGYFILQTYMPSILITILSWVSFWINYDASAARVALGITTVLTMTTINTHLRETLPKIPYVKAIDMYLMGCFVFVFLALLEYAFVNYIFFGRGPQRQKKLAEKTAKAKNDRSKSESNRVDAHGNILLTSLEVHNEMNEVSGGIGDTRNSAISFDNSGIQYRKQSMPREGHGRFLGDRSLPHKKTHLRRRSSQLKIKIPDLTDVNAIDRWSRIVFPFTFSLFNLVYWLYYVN
# [3] = test system: Musca domestica; assay: Insecticidal activity against topically-treated Musca domestica (house fly); format: ADME, organism-based; details: topical
# [4] = Inhibition of recombinant Homo sapiens (human) GABA receptor
# [5] = biological target: T2, GABA A receptor alpha-1/beta-1/gamma-2 (Homo sapiens, UniProt P14867+P18505+P18507); assay: Displacement of [3H]EBOB from recombinant Homo sapiens (human) GABA alpha1beta1gamma2 receptor; format: protein-complex assay
# T2 sequence (P14867 whole entry): T1 sequence (P14867 whole entry)
# T2 sequence (P18507 whole entry): T1 sequence (P18507 whole entry)
# T2 sequence (P18505 whole entry): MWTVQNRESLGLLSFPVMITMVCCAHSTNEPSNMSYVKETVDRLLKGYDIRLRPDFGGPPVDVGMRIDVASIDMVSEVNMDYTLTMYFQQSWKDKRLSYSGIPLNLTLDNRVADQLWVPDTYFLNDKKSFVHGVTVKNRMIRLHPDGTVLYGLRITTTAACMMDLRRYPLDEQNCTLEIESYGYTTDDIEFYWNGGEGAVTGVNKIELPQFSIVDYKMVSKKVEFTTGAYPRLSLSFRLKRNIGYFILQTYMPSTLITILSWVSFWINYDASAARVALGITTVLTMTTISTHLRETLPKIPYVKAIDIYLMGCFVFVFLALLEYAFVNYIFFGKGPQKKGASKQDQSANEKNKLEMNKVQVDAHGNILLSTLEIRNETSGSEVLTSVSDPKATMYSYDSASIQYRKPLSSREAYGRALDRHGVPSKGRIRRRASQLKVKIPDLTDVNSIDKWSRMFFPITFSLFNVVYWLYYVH
# [6] = biological target: T3, Gamma-aminobutyric acid receptor subunit beta-3 (Homo sapiens, UniProt P28472); assay: Displacement of [3H]EBOB from recombinant Homo sapiens (human) GABA beta3 receptor
# T3 sequence (P28472 whole entry): T1 sequence (P28472 whole entry)
# [7] = biological target: T4, Gamma-aminobutyric acid receptor subunit alpha-1/ beta-1 (Homo sapiens, UniProt P14867+P18505); assay: Displacement of [3H]EBOB from recombinant Homo sapiens (human) GABA alpha1beta1 receptor; format: protein-complex assay
# T4 sequence (P14867 whole entry): T1 sequence (P14867 whole entry)
# T4 sequence (P18505 whole entry): T2 sequence (P18505 whole entry)
# [8] = biological target: T5, GABA receptor subunit (Musca domestica, UniProt Q75NA5); assay: Inhibition of Musca domestica (house fly) GABA receptor
# T5 sequence (Q75NA5 whole entry): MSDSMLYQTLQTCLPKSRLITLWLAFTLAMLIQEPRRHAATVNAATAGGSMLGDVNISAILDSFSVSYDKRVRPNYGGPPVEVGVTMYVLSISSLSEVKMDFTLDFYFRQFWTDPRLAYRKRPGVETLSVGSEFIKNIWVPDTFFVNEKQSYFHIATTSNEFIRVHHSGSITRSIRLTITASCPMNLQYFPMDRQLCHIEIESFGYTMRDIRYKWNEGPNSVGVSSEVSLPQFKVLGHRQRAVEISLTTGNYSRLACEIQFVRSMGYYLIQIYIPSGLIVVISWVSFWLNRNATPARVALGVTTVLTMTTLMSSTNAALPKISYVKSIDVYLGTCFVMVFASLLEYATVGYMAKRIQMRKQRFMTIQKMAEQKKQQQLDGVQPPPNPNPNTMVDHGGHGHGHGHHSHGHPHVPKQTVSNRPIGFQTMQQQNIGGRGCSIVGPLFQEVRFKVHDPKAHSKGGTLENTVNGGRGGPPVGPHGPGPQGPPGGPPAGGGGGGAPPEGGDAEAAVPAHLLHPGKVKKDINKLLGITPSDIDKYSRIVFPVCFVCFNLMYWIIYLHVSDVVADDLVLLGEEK
# [9] = biological target: Gamma-aminobutyric acid receptor subunit rho-1 (Homo sapiens, UniProt P24046); assay: Displacement of [3H]EBOB from recombinant Homo sapiens (human) GABA rho1 receptor
# Gamma-aminobutyric acid receptor subunit rho-1, sequence (P24046 whole entry): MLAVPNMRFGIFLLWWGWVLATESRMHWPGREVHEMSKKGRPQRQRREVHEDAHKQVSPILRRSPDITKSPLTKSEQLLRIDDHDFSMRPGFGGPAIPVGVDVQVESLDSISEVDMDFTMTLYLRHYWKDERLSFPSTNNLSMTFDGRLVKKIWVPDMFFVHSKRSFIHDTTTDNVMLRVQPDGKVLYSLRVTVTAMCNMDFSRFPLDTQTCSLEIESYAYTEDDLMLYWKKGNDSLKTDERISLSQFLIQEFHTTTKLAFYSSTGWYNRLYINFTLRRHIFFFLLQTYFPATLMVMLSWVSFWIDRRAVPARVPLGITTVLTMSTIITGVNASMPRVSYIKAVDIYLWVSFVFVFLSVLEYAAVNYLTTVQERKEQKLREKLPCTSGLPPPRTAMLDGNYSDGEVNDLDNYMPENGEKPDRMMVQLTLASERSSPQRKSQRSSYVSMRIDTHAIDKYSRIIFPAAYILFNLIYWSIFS
# [10] = biological target: T6, GABA-A receptor alpha-1/beta-3 (Homo sapiens, UniProt P14867+P28472); assay: Displacement of [3H]EBOB from recombinant Homo sapiens (human) GABA alpha1beta3 receptor
# T6 sequence (P14867 whole entry): T1 sequence (P14867 whole entry)
# T6 sequence (P28472 whole entry): T1 sequence (P28472 whole entry)
# [11] = Toxicity in ip dosed Mus musculus (mouse); format: organism-based; details: in vivo
# [12] = biological target: GABA-A receptor; alpha-6/beta-3/gamma-2 (Homo sapiens, UniProt P18507+P28472+Q16445); assay: Displacement of [3H]EBOB from recombinant Homo sapiens (human) GABA alpha6beta3gamma2 receptor; format: protein-complex assay
# GABA-A receptor; alpha-6/beta-3/gamma-2, sequence (Q16445 whole entry, one chain of several): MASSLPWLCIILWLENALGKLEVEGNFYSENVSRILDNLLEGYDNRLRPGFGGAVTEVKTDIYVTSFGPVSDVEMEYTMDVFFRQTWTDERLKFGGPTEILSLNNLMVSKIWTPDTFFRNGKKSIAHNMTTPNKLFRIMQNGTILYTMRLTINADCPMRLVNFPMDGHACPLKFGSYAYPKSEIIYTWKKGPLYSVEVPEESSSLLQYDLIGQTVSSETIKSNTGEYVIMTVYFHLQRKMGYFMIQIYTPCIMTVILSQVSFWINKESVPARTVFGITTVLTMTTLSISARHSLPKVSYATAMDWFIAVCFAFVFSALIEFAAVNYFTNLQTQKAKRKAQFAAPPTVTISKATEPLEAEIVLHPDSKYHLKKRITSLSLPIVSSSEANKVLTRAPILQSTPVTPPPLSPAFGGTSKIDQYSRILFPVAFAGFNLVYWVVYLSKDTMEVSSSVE
# [13] = biological target: Gamma-aminobutyric acid receptor subunit alpha-6/beta-3 (Homo sapiens, UniProt P28472+Q16445); assay: Displacement of [3H]EBOB from recombinant Homo sapiens (human) GABA alpha6beta3 receptor; format: protein-complex assay
# Gamma-aminobutyric acid receptor subunit alpha-6/beta-3, sequence (Q16445 whole entry, one chain of several): as above
smiles,measurement,setting,value
C#Cc1ccc(C23OCC(CCC)(CO2)CO3)cc1,Ratio IC50,[1],5
O=S1OC[C@@H]2[C@H](CO1)[C@@]1(Cl)C(Cl)=C(Cl)[C@]2(Cl)C1(Cl)Cl (stereo partly drawn) [ALPHA-ENDOSULFAN],IC50,[2],16 nM
same,LD50,[3],5.5 mg/kg
same,IC50,[4],7.3 nM
same,Ratio IC50,[1],0.73
same,IC50,[5],40 nM
same,IC50,[6],0.47 nM
same,IC50,[7],117 nM
same,IC50,[8],10 nM
same,IC50,[9],800 nM
same,IC50,[10],8.3 nM
same,LD50,[11],10 mg/kg
same,IC50,[12],4.6 nM
same,IC50,[13],4 nM
N#Cc1nn(-c2c(Cl)cc(C(F)(F)F)cc2Cl)c(N)c1[S+]([O-])C(F)(F)F (stereo not given) [FIPRONIL],IC50,[2],33 nM
same,LD50,[3],0.25 mg/kg
same,IC50,[4],2500 nM
same,Ratio IC50,[1],1090
same,IC50,[5],2800 nM
same,IC50,[6],2.4 nM
same,IC50,[7],7700 nM
same,IC50,[8],2.3 nM
same,IC50,[9],> 10000 nM
same,IC50,[10],28 nM
same,LD50,[11],32 mg/kg
same,IC50,[12],17 nM
same,IC50,[13],3.1 nM
Cl[C@H]1[C@H](Cl)[C@@H](Cl)[C@@H](Cl)[C@H](Cl)[C@H]1Cl [LINDANE],IC50,[2],21 nM
same,LD50,[3],5.5 mg/kg
same,IC50,[4],306 nM
same,Ratio IC50,[1],28
same,IC50,[5],67 nM
same,IC50,[6],0.9 nM
same,IC50,[7],112 nM
same,IC50,[8],11 nM
same,IC50,[9],91 nM
same,IC50,[10],12 nM
same,LD50,[11],40 mg/kg
same,IC50,[12],4.9 nM
same,IC50,[13],1.3 nM
